Data set [1] concerns the target T1, Ima1p (Saccharomyces cerevisiae, UniProt P53051). Nature of the data set: Substrate specificity of purified isomaltase. Format: biochemical. Conditions: 100 mM substrate (pNPG 5 mM), pH 7, 30 °C; for Specific activities: citrate–potassium phosphate buffer.
Data set [2] concerns the target T2, Ima2p (Saccharomyces cerevisiae, UniProt Q08295). Nature of the data set: Substrate specificity of purified isomaltase. Format: biochemical. Conditions: 100 mM substrate (pNPG 5 mM), pH 7, 30 °C; for Specific activities: citrate–potassium phosphate buffer.
Data set [3] concerns the target T3, Ima3p (Saccharomyces cerevisiae, UniProt P0CW40). Kind of data set: Substrate specificity of purified isomaltase. The format is biochemical. Conditions: 100 mM substrate (pNPG 5 mM), pH 7, 30 °C; for Specific activities: citrate–potassium phosphate buffer.
Data set [4] has as its target T4, Ima5p (Saccharomyces cerevisiae, UniProt P40884).
T4 sequence (P40884 1-581): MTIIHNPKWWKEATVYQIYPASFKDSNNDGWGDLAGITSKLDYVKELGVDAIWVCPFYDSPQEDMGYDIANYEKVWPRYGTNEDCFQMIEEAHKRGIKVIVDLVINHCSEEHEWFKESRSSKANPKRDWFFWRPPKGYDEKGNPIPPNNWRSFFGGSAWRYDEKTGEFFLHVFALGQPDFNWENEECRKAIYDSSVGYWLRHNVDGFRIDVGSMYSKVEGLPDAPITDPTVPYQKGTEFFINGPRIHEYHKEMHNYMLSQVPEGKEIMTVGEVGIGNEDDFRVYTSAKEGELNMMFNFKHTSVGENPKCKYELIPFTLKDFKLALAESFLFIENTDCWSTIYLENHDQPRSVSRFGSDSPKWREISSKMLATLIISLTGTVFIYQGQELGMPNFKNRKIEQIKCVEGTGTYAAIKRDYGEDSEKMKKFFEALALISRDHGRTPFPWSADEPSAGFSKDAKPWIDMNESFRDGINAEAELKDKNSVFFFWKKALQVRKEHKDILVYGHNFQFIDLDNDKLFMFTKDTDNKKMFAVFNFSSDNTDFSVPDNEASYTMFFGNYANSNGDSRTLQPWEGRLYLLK
Kind of data set: Substrate specificity of purified isomaltase. Format: biochemical. Conditions: 100 mM substrate (pNPG 5 mM), pH 7, 30 °C; for Specific activities: citrate–potassium phosphate buffer.

The target in the next data set is Ima3pL240P (Saccharomyces cerevisiae, UniProt P0CW40, L240P). Kind of data set: Substrate specificity of purified isomaltase variant. Format: biochemical. Particulars: 100 mM substrate (pNPG 5 mM), citrate–potassium phosphate buffer, pH 7, 30 °C.
In a further data set the target is Ima3pR279Q (Saccharomyces cerevisiae, UniProt P0CW40, R279Q). The description is as above. The format is biochemical. Conditions: 100 mM substrate (pNPG 5 mM), citrate–potassium phosphate buffer, pH 7, 30 °C.
For data set [5], the target named is T1, Ima1p. Nature of the data set: Kinetic parameters for selected substrates. The format is biochemical. Conditions: for Km: affinity constant for the substrate; for Km / kcat: mean ± SEM.
Data set [6] deals with T2, Ima2p. Nature of the data set: Kinetic parameters for selected substrates. Conditions: for Km: affinity constant for the substrate; for Km / kcat: mean ± SEM. The format is biochemical.
Data set [7] concerns the target T3, Ima3p. Kind of data set: Kinetic parameters for selected substrates. Format: biochemical. Conditions: for Km: affinity constant for the substrate; for Km / kcat: mean ± SEM; for Ki: inhibition by high concentration of substrate.
Data set [8] deals with T4, Ima5p. Kind of data set: Kinetic parameters for selected substrates. Format: biochemical. Particulars: for Km: affinity constant for the substrate; for Km / kcat: mean ± SEM.
Data set [9] can be described thus: Thermostability assay: time-dependent heat inactivation, half-life. The format is biochemical, Saccharomyces cerevisiae. Particulars: pNPG 5 mM, mean ± 2 SEM.
The nature of data set [10]: Melting temperature by differential scanning fluorimetry. Conditions: mean ± 2 SEM. Format: physicochemical, Saccharomyces cerevisiae.
Where [11] appears, read: inhibition by high concentration of substrate.

A word on the Km: it is the concentration of substrate that gives half-maximal velocity. The term kcat denotes the maximal rate divided by the concentration of active sites. The Tm is the temperature at which the thermal transition is half complete.

T1 sequence (P53051 whole entry): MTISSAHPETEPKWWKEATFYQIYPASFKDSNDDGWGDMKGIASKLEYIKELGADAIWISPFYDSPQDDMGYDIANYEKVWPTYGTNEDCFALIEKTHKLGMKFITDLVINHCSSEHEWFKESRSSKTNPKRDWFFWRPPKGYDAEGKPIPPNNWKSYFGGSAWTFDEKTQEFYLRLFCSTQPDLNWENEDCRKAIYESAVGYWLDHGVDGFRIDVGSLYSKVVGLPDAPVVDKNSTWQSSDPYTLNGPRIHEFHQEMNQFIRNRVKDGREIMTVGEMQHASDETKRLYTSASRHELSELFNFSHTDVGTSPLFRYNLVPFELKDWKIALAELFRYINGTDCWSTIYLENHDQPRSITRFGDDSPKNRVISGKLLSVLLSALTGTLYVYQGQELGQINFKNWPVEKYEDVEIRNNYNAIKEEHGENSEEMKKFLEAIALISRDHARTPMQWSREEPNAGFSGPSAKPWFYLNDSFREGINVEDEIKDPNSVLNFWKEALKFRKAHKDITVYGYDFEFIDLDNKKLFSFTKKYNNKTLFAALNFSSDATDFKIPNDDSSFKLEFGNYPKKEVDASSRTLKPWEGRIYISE
T2 sequence (Q08295 whole entry): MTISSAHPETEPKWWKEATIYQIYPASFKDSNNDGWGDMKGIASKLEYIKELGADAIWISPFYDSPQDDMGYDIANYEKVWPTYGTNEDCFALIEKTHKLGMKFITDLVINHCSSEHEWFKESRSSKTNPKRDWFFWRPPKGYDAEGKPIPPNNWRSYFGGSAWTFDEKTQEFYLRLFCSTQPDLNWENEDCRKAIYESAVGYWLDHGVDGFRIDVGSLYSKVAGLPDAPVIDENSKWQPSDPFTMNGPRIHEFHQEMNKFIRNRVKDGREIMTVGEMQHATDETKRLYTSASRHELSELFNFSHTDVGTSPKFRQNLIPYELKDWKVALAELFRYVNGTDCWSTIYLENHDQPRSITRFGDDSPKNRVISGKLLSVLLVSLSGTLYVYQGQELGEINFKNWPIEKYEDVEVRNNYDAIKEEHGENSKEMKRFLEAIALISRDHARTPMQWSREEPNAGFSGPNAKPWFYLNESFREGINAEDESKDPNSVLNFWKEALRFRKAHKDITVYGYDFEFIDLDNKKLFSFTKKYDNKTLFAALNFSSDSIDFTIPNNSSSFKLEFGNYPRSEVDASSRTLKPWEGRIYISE
Chain of Ima3pL240P (P0CW40 whole entry L240P): as the sequence (Q08295 whole entry) above, with A54T, Q279R counted along it

As to `OC[C@H]1O[C@H](OC[C@H]2O[C@H](O)[C@H](O)[C@@H](O)[C@@H]2O)[C@H](O)[C@@H](O)[C@@H]1O` [Isomaltose, O-α-D-Glucosyl-(1→6)-α-D-glucose], the Specific activities was 60 µmol/min/mg on Ima1p [1]; 54 µmol/min/mg on Ima2p [2]; 7.2 µmol/min/mg on Ima3p [3]; 65 µmol/min/mg on Ima5p [4]; 2.2 µmol/min/mg on Ima3pL240P; 29 µmol/min/mg on Ima3pR279Q. Also, the “relative activity, velocity on isomaltose set to 100” value (shortened to “relative activity, velocity”) at Ima1p [1], at Ima2p [2], at Ima3p [3] and at Ima5p [4] was 100% throughout. Moreover, the Km was found to be 17 ± 4 mM at Ima1p [5], 17 ± 2 mM on Ima2p [6], 37 ± 9 mM at Ima3p [7] and 13 ± 2 mM on Ima5p [8]. Moreover, the kcat amounted to 103 ± 12 s⁻¹ on Ima1p [5], 97 ± 5 s⁻¹ on Ima2p [6], 15 ± 2 s⁻¹ on Ima3p [7] and 101 ± 8 s⁻¹ on Ima5p [8].

With `OC[C@H]1O[C@H](OC[C@H]2O[C@H](OC[C@H]3OC(O)[C@H](O)[C@@H](O)[C@@H]3O)[C@H](O)[C@@H](O)[C@@H]2O)[C@H](O)[C@@H](O)[C@@H]1O` (stereo partly drawn) [Isomaltotriose, O-α-D-Glucosyl-(1→6)-α-D-glucosyl-(1→6)-D-glucose], the Specific activities at Ima1p [1] came out at 7.9 µmol/min/mg; at Ima2p [2], 7.6 µmol/min/mg; on Ima3p [3], 0 µmol/min/mg; at Ima5p [4] it was 8.6 µmol/min/mg. Moreover, the “relative activity, velocity” value amounted to 13% at Ima1p [1], 14% at Ima2p [2] and 13% on Ima5p [4]. Also, the Ki entry on Ima1p [5] (setting [11]), on Ima2p [6] (setting [11]), at Ima3p [7] and at Ima5p [8] (setting [11]) was “None” throughout. Besides, the kcat at Ima1p [5] is 21 ± 4 s⁻¹; on Ima2p [6] it was 15 ± 2 s⁻¹; at Ima3p [7], 0 s⁻¹; on Ima5p [8] it was 18 ± 3 s⁻¹. The values for the Km on Ima2p [6] and on Ima5p [8] were 72 ± 16 mM and 83 ± 25 mM, respectively.

On to `OC[C@H]1O[C@H](O[C@@H]2COC(O)(CO)[C@@H](O)[C@@H]2O)[C@H](O)[C@@H](O)[C@@H]1O` (stereo partly drawn) [Leucrose, O-α-D-Glucosyl-(1→5)-D-fructose], for which the Specific activities was determined as 8.6 µmol/min/mg on Ima1p [1]; 8.6 µmol/min/mg at Ima2p [2]; 0 µmol/min/mg at Ima3p [3]; 1.1 µmol/min/mg at Ima5p [4]; 0 µmol/min/mg at Ima3pL240P; 1.5 µmol/min/mg at Ima3pR279Q. In addition, the entries for the “relative activity, velocity” value at Ima1p [1], at Ima2p [2] and on Ima5p [4] were 14%, 16% and 2%, respectively.

For `OC[C@H]1O[C@H](OC[C@H]2OC(O)(CO)[C@@H](O)[C@@H]2O)[C@H](O)[C@@H](O)[C@@H]1O` (stereo partly drawn) [Palatinose, O-α-D-Glucosyl-(1→6)-D-fructose], the Specific activities at Ima1p [1] was determined as 52 µmol/min/mg; on Ima2p [2] it was 74 µmol/min/mg; at Ima3p [3], 5 µmol/min/mg; at Ima5p [4], 39 µmol/min/mg; on Ima3pL240P, 2.8 µmol/min/mg; at Ima3pR279Q it was 33 µmol/min/mg. The “relative activity, velocity” value on Ima1p [1] came to 87%; at Ima2p [2], 137%; on Ima3p [3], 69%; at Ima5p [4], 60%. For the same molecule, the Km at Ima1p [5] stood at 18 ± 4 mM; at Ima2p [6], 11 ± 2 mM; on Ima3p [7] it was 7 ± 0.7 mM; at Ima5p [8] it was 12 ± 3 mM. In addition, the kcat at Ima1p [5] was 78 ± 8 s⁻¹; at Ima2p [6], 104 ± 6 s⁻¹; at Ima3p [7], 6.0 ± 0.1 s⁻¹; on Ima5p [8], 56 ± 5 s⁻¹. At Ima3p [7], the Ki entry is “None”.

B1: Ima3p: isomaltase from S. cerevisiae encoded by IMA3/YIL172C (identical IMA4), His-tagged, purified (protein, UniProt P0CW41 1-589, looked up)
Oligo-1,6-glucosidase IMA4: MTISSAHPETEPKWWKEATIYQIYPASFKDSNNDGWGDMKGIASKLEYIKELGTDAIWISPFYDSPQDDMGYDIANYEKVWPTYGTNEDCFALIEKTHKLGMKFITDLVINHCSSEHEWFKESRSSKTNPKRDWFFWRPPKGYDAEGKPIPPNNWRSYFGGSAWTFDEKTQEFYLRLFCSTQPDLNWENEDCRKAIYESAVGYWLDHGVDGFRIDVGSLYSKVAGLPDAPVIDENSKWQLSDPFTMNGPRIHEFHQEMNKFIRNRVKDGREIMTVGEMRHATDETKRLYTSASRHELSELFNFSHTDVGTSPKFRQNLIPYELKDWKVALAELFRYVNGTDCWSTIYLENHDQPRSITRFGDDSPKNRVISGKLLSVLLVSLSGTLYVYQGQELGEINFKNWPIEKYEDVEVRNNYDAIKEEHGENSKEMKRFLEAIALISRDHARTPMQWSREEPNAGFSGPNAKPWFYLNESFREGINAEDESKDPNSVLNFWKEALRFRKAHKDITVYGYDFEFIDLDNKKLFSFTKKYDNKTLFAALNFSSDSIDFTIPNNSSSFKLEFGNYPRSEVDASSRTLKPWEGRIYISE
modifications: His tag
For the molecule B1, the t1/2 in data set [9] (37 °C) was 23.2 ± 1.4 min; in data set [9] (40 °C), 7.6 ± 0.9 min; in data set [9] (42 °C), 2.9 ± 0.5 min. Besides, the Tm in [10] (pH 6, DSF) was determined as 47.0 ± 0.3 °C; in [10] (pH 7, DSF), 38.8 ± 0.5 °C; in data set [10] (pH 8, DSF), 29.9 ± 0.3 °C.

B2: Ima3p_R279Q: Ima3p variant with R279Q mutation (protein, UniProt P0CW40 1-589, looked up, variant R279Q)
Oligo-1,6-glucosidase IMA3: MTISSAHPETEPKWWKEATIYQIYPASFKDSNNDGWGDMKGIASKLEYIKELGTDAIWISPFYDSPQDDMGYDIANYEKVWPTYGTNEDCFALIEKTHKLGMKFITDLVINHCSSEHEWFKESRSSKTNPKRDWFFWRPPKGYDAEGKPIPPNNWRSYFGGSAWTFDEKTQEFYLRLFCSTQPDLNWENEDCRKAIYESAVGYWLDHGVDGFRIDVGSLYSKVAGLPDAPVIDENSKWQLSDPFTMNGPRIHEFHQEMNKFIRNRVKDGREIMTVGEMQHATDETKRLYTSASRHELSELFNFSHTDVGTSPKFRQNLIPYELKDWKVALAELFRYVNGTDCWSTIYLENHDQPRSITRFGDDSPKNRVISGKLLSVLLVSLSGTLYVYQGQELGEINFKNWPIEKYEDVEVRNNYDAIKEEHGENSKEMKRFLEAIALISRDHARTPMQWSREEPNAGFSGPNAKPWFYLNESFREGINAEDESKDPNSVLNFWKEALRFRKAHKDITVYGYDFEFIDLDNKKLFSFTKKYDNKTLFAALNFSSDSIDFTIPNNSSSFKLEFGNYPRSEVDASSRTLKPWEGRIYISE
As to B2, the t1/2 came to 9.5 ± 1.7 min in data set [9] (37 °C) and 2.0 ± 0.3 min in data set [9] (40 °C). Further, the Tm in data set [10] (pH 7, DSF) is 37.6 ± 0.8 °C.

B3: Ima5p: isomaltase from S. cerevisiae encoded by IMA5/YJL216C, His-tagged, purified (protein, UniProt P40884 1-581, looked up)
Oligo-1,6-glucosidase IMA5: MTIIHNPKWWKEATVYQIYPASFKDSNNDGWGDLAGITSKLDYVKELGVDAIWVCPFYDSPQEDMGYDIANYEKVWPRYGTNEDCFQMIEEAHKRGIKVIVDLVINHCSEEHEWFKESRSSKANPKRDWFFWRPPKGYDEKGNPIPPNNWRSFFGGSAWRYDEKTGEFFLHVFALGQPDFNWENEECRKAIYDSSVGYWLRHNVDGFRIDVGSMYSKVEGLPDAPITDPTVPYQKGTEFFINGPRIHEYHKEMHNYMLSQVPEGKEIMTVGEVGIGNEDDFRVYTSAKEGELNMMFNFKHTSVGENPKCKYELIPFTLKDFKLALAESFLFIENTDCWSTIYLENHDQPRSVSRFGSDSPKWREISSKMLATLIISLTGTVFIYQGQELGMPNFKNRKIEQIKCVEGTGTYAAIKRDYGEDSEKMKKFFEALALISRDHGRTPFPWSADEPSAGFSKDAKPWIDMNESFRDGINAEAELKDKNSVFFFWKKALQVRKEHKDILVYGHNFQFIDLDNDKLFMFTKDTDNKKMFAVFNFSSDNTDFSVPDNEASYTMFFGNYANSNGDSRTLQPWEGRLYLLK
modifications: His tag
Consider B3, for which the t1/2 in data set [9] (37 °C) is given as 2.9 ± 0.4 min; in [9] (40 °C), 0.8 ± 0.1 min. In addition, the Tm in [10] (pH 6, DSF) came out at 36.6 ± 0.4 °C; in data set [10] (pH 8, DSF), 35.7 ± 0.5 °C.

Values taken from article PMC3953731 (FEBS Open Bio, 2014).
